Source: patent publication US20070259879A1, “Piperazine and piperidine biaryl derivatives” (priority 2006, published 2007)

System: HIV-1 pseudotyped virus
Test: HIV-1 pseudotyped virus assay (luciferase reporter gene, single cycle of infection)
Format: cell-based
Details: Human immunodeficiency virus 1, CCR5, 72 h, read-out: Activity (antiviral activity, IC50)
How it was run: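 Single-cycle luciferase-reporter pseudovirus made by co-transfecting 293T cells with HIV-1 envelope plasmid plus env-defective, nef-replaced backbone; infects CD4/CCR5 or CXCR4 target cells. Compounds added before virus, serial dilutions in duplicate, two experiments; 3-day culture, lysis, luminescence. IC50 = 50% signal reduction interpolated from titration curve.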

`C[C@@H]1CN(C(=O)c2ccccc2)CCN1C(=O)C(=O)c1ccc(-c2ccc(C(F)(F)F)cn2)cc1` [Example 201] and `Cc1ccc(-c2ccc(C(=O)C(=O)N3CCN(C(=O)c4ccccc4)C[C@H]3C)cc2)nc1` [Example 207] cannot be ordered by IC50: under 5 µM for the first, under 5 µM for the second.

Going from `COc1cc(-c2ccc(C(=O)C(=O)N3CCN(C(=O)c4ccccc4)C[C@H]3C)cc2)nc(OC)n1` [Example 202] to `COc1cc(OC)nc(-c2ccc(C(=O)C(=O)N3CCN(C(=O)c4ccccc4)C[C@H]3C)cc2)n1` [Example 254], the IC50 rises from under 5 µM to over 5 µM. The first is the more potent here.

First: C[C@@H]1CN(C(=O)c2ccccc2)CCN1C(=O)C(=O)c1ccc(-c2ncccn2)cc1 [Example 203]
Second: C[C@@H]1CN(C(=O)c2ccccc2)CCN1C(=O)C(=O)c1cccc(-c2ncccn2)c1 [Example 253]
The IC50 of the first is lower: under 5 µM for the first, over 5 µM for the second.

`C[C@@H]1CN(C(=O)c2ccccc2)CCN1C(=O)C(=O)c1ccc(-c2ccsc2)cc1` [Example 204] and `C[C@@H]1CN(C(=O)c2ccccc2)CCN1C(=O)C(=O)c1ccc(-c2cccs2)cc1` [Example 205] cannot be ordered by IC50: under 5 µM for the first, under 5 µM for the second.

`C[C@@H]1CN(C(=O)c2ccccc2)CCN1C(=O)C(=O)c1ccc(-c2ccncc2)cc1` [Example 206] and `Cc1ccnc(-c2ccc(C(=O)C(=O)N3CCN(C(=O)c4ccccc4)CC3C)cc2)n1` (centres unmarked) [Example 208] cannot be ordered by IC50: under 5 µM for the first, under 5 µM for the second.

Going from `Cc1cc(-c2ccc(C(=O)C(=O)N3CCN(C(=O)c4ccccc4)C[C@H]3C)c(Cl)c2)on1` [Example 209] to `Cc1cc(-c2ccc(C(=O)C(=O)N3CCN(C(=O)c4ccccc4)C[C@H]3C)c(O)c2)on1` [Example 224], the IC50 rises from under 5 µM to over 5 µM. The first is the more potent here.

Compared with `Cc1cc(-c2ccc(C(=O)C(=O)N3CCN(C(=O)c4ccccc4)C[C@H]3C)cc2F)on1` [Example 210], `Cc1cc(-c2cc(Cl)c(C(=O)C(=O)N3CCN(C(=O)c4ccccc4)C[C@H]3C)c(Cl)c2)on1` [Example 220] is higher in IC50: under 5 µM for the first, over 5 µM for the second.

`C[C@@H]1CN(C(=O)c2ccccc2)CCN1C(=O)C(=O)c1ccc(N2CCCC2)cc1` [Example 211, 1-((R)-4-Benzoyl-2-methyl-piperazin-1-yl)-2-(4-pyrrolidin-1-yl-phenyl)-ethane-1,2-dione] and `C[C@@H]1CN(C(=O)c2ccccc2)CCN1C(=O)C(=O)c1ccc(N2CCOC2=O)cc1` [Example 212, 1-((R)-4-Benzoyl-2-methyl-piperazin-1-yl)-2-[4-(2-oxo-oxazolidin-3-yl)-phenyl]-ethane-1,2-dione] cannot be ordered by IC50: over 5 µM for the first, over 5 µM for the second.

Going from `Cc1cc(C(=O)C(=O)N2CCN(C(=O)c3ccccc3)C[C@H]2C)ccc1-n1cccn1` [Example 213, 1-((R)-4-Benzoyl-2-methyl-piperazin-1-yl)-2-(3-methyl-4-pyrazol-1-yl-phenyl)-ethane-1,2-dione] to `C[C@@H]1CN(C(=O)c2ccccc2)CCN1C(=O)C(=O)c1ccc(-n2cccn2)nc1` [Example 214, 1-((R)-4-Benzoyl-2-methyl-piperazin-1-yl)-2-(6-pyrazol-1-yl-pyridin-3-yl)-ethane-1,2-dione], the IC50 falls from over 5 µM to under 5 µM. The second is the more potent here.

`C[C@@H]1CN(C(=O)c2ccccc2)CCN1C(=O)C(=O)c1ccc(-c2cc[nH]n2)cc1N(C)C` [Example 216, 1-((R)-4-Benzoyl-2-methyl-piperazin-1-yl)-2-[2-dimethylamino-4-(1H-pyrazol-3-yl)-phenyl]-ethane-1,2-dione] and `CNc1cc(-c2cc[nH]n2)ccc1C(=O)C(=O)N1CCN(C(=O)c2ccccc2)C[C@H]1C` [Example 227] cannot be ordered by IC50: over 5 µM for the first, over 5 µM for the second.

`C[C@@H]1CN(C(=O)c2ccccc2)CCN1C(=O)C(=O)c1ccc(-n2ccnc2)cc1` [Example 217] and `CC1CN(C(=O)c2ccccc2)CCN1C(=O)C(=O)c1ccc(-n2cccn2)cc1` (centres unmarked) [Example 240] cannot be ordered by IC50: under 5 µM for the first, under 5 µM for the second.

First: Cc1cc(-n2ccnc2)ccc1C(=O)C(=O)N1CCN(C(=O)c2ccccc2)C[C@H]1C [Example 218]
Second: Cc1cc(C)n(-c2ccc(C(=O)C(=O)N3CCN(C(=O)c4ccccc4)C[C@H]3C)cc2)n1 [Example 250]
The IC50 of the first is lower: under 5 µM for the first, over 5 µM for the second.

`C[C@@H]1CN(C(=O)c2ccccc2)CCN1C(=O)C(=O)c1ccc(-c2cc[nH]n2)cc1N` [Example 219, 1-((R)-4-Benzoyl-2-methyl-piperazin-1-yl)-2-[2-amino-4-(1H-pyrazol-3-yl)-phenyl]-ethane-1,2-dione] and `C[C@@H]1CN(C(=O)c2ccccc2)CCN1C(=O)C(=O)c1ccc(-c2cc[nH]n2)cc1O` [Example 223] cannot be ordered by IC50: under 5 µM for the first, under 5 µM for the second.

First: C[C@@H]1CN(C(=O)c2ccccc2)CCN1C(=O)C(=O)c1ccc(-c2cc[nH]n2)c(Cl)c1N(C)C [Example 221]
Second: C[C@@H]1CN(C(=O)c2ccccc2)CCN1C(=O)C(=O)c1cc(Cl)c(-c2cc[nH]n2)cc1N(C)C [Example 222]
The IC50 of the first is lower: under 5 µM for the first, over 5 µM for the second. The first is the more potent here.

Compared with `C[C@@H]1CN(C(=O)c2ccccc2)CCN1C(=O)C(=O)c1ccc(Br)c(Cl)c1` [Example 225], `C[C@@H]1CN(C(=O)c2ccccc2)CCN1C(=O)C(=O)c1ccc(-n2cncn2)c(Cl)c1` [Example 231] is higher in IC50: under 5 µM for the first, over 5 µM for the second. The first is the more potent here.

Going from `COc1cc(Br)ccc1C(=O)C(=O)N1CCN(C(=O)c2ccccc2)C[C@H]1C` [Example 226] to `COc1cc(OC)c(C(=O)C(=O)N2CCN(C(=O)c3ccccc3)C[C@H]2C)cn1` [Example 238], the IC50 rises from under 5 µM to over 5 µM.

`COc1cc(Br)c(Cl)cc1C(=O)C(=O)N1CCN(C(=O)c2ccccc2)CC1` [Example 228] and `COc1cc(-n2ccnn2)c(Cl)cc1C(=O)C(=O)N1CCN(C(=O)c2ccccc2)CC1` [Example 236] cannot be ordered by IC50: under 5 µM for the first, under 5 µM for the second.

`COc1cc(-c2onc(C)c2Cl)ccc1C(=O)C(=O)N1CCN(C(=O)c2ccccc2)C[C@H]1C` [Example 229] and `COc1cc(-c2cnn(C)c2)ncc1C(=O)C(=O)N1CCN(C(=O)c2ccccc2)C[C@H]1C` [Example 239] cannot be ordered by IC50: under 5 µM for the first, under 5 µM for the second.

`C[C@@H]1CN(C(=O)c2ccccc2)CCN1C(=O)C(=O)c1cc(Cl)c(-c2cc[nH]n2)c(Cl)c1N` [Example 230] and `C[C@@H]1CN(C(=O)c2ccccc2)CCN1C(=O)C(=O)c1cnc(-c2ccccc2)c(Cl)c1O` [Example 242] cannot be ordered by IC50: over 5 µM for the first, over 5 µM for the second.

Going from `C[C@@H]1CN(C(=O)c2ccccc2)CCN1C(=O)C(=O)c1ccc(-n2ccnn2)c(Cl)c1` [Example 232] to `C[C@@H]1CN(C(=O)c2ccccc2)CCN1C(=O)C(=O)c1ccc(-c2nc[nH]n2)cc1` [Example 234], the IC50 falls from over 5 µM to under 5 µM. The second is the more potent here.

Compared with `Cc1nnc(-c2ccc(C(=O)C(=O)N3CCN(C(=O)c4ccccc4)C[C@H]3C)cc2)s1` [Example 233], `C[C@@H]1CN(C(=O)c2ccccc2)CCN1C(=O)C(=O)c1cccc(-c2cnco2)c1` [Example 251] is higher in IC50: under 5 µM for the first, over 5 µM for the second. The first is the more potent here.

`Cc1cc(-c2ccc(C(O)C(=O)N3CCN(C(=O)c4ccccc4)C[C@H]3C)cc2)on1` (some centres unmarked) [Example 235] and `C[C@@H]1CN(C(=O)c2ccccc2)CCN1C(=O)C(=O)c1cccc(-c2ccccn2)c1` [Example 252] cannot be ordered by IC50: over 5 µM for the first, over 5 µM for the second.

`COc1cc(-c2cc[nH]n2)c(Cl)cc1C(=O)C(=O)N1C2CCC1CN(C(=O)c1ccccc1)C2` [Example 237] and `C[C@@H]1CN(C(=O)c2ccccc2)CCN1C(=O)C(=O)c1cnc(-c2cccs2)cc1O` [Example 243] cannot be ordered by IC50: over 5 µM for the first, over 5 µM for the second.

`C[C@@H]1CN(C(=O)c2ccccc2)CCN1C(=O)C(=O)c1c[nH]c(-c2ccc3[nH]ccc3c2)c1` [Example 241] and `C[C@@H]1CN(C(=O)c2ccccc2)CCN1C(=O)C(=O)c1cnc(-c2ccccc2)cc1O` [Example 244] cannot be ordered by IC50: over 5 µM for the first, over 5 µM for the second.

`C[C@@H]1CN(C(=O)c2ccccc2)CCN1S(=O)(=O)c1ccc(C(=O)c2cccs2)cc1` [Example 245] and `CC1CN(C(=O)c2ccccc2)CCN1S(=O)(=O)c1ccc(C(=O)c2ccco2)cc1` (centres unmarked) [Example 247] cannot be ordered by IC50: over 5 µM for the first, over 5 µM for the second.

`C[C@@H]1CN(C(=O)c2ccccc2)CCN1S(=O)(=O)c1ccc(C(=O)c2ccsc2)s1` [Example 246] and `C[C@@H]1CN(C(=O)c2ccccc2)CCN1S(=O)(=O)c1ccc(C(=O)c2ccon2)s1` [Example 248] cannot be ordered by IC50: over 5 µM for the first, over 5 µM for the second.

In the case of `CC1CN(C(=O)c2ccccc2)CCN1S(=O)(=O)c1ccc(C(=O)n2ccnc2)cc1` (centres unmarked) [Example 249], the IC50 is reported as over 5 µM.
